Drawing on patent EP1144369B1 (Wyeth Holdings Corporation, priority 1999, dated 2000), this text covers IC50 and inhibition for eleven compounds.

One experiment addresses T1, MMP-1 (Homo sapiens, UniProt P03956).
T1 sequence (P03956 100-469): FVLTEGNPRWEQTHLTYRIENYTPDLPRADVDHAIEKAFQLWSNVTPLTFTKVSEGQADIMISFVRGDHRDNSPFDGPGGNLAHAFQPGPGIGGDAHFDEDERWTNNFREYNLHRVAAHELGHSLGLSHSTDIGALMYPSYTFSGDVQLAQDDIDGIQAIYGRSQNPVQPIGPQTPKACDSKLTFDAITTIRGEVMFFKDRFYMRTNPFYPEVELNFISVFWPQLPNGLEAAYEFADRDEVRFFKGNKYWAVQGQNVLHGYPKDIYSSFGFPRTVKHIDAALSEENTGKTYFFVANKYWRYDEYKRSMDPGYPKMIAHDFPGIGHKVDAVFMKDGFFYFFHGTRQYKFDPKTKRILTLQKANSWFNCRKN
Kind of experiment: MMP-1 inhibition (thiopeptide or fluorescent peptide substrate). The format is biochemical. The conditions noted are these: for IC50: plain number = IC50; for inhibition at 10 µM: read-out: IC50 (nM) or % Inhibition (µM) MMP-1. As for the experimental part:
(§1) The enzyme activity is measured by the rate of the color increase. The thiopeptide substrate is made up fresh as a 20 mM stock in 100% DMSO and the DTNB is dissolved in 100% DMSO as a 100 mM stock and stored in the dark at room temperature. Both the substrate and DTNB are diluted together to 1 mM with substrate buffer (50 mM HEPES pH 7.5, 5 mM CaCl2) before use. The stock of enzyme is diluted with buffer (50 mM HEPES, pH 7.5, 5 mM CaCl2, 0.02% Brij) to the desired final concentration.
(§2) Alternatively, a fluorescent peptide substrate is used. In this test procedure, the peptide substrate contains a fluorescent group and a quenching group. Upon cleavage of the substrate by an MMP, the fluorescence that is generated is quantitated on the fluorescence plate reader. The assay is run in HCBC assay buffer (50mM HEPES, pH 7.0, 5 mM Ca^+2, 0.02% Brij, 0.5% Cysteine), with human recombinant MMP-1, MMP-9, or MMP-13. The substrate is dissolved in methanol and stored frozen in 1 mM aliquots. For the assay, substrate and enzymes are diluted in HCBC buffer to the desired concentrations. Compounds are added to the 96 well plate containing enzyme and the reaction is started by the addition of substrate.
(§3) For either the thiopeptide or fluorescent peptide test procedures, the slope of the line is calculated and represents the reaction rate. The linearity of the reaction rate is confirmed (r^2 >0.85). The mean (x±sem) of the control rate is calculated and compared for statistical significance (p<0.05) with drug-treated rates using Dunnett's multiple comparison test.

In another experiment the target is MMP-9 (Homo sapiens, UniProt P14780). Kind of experiment: MMP-9 inhibition (thiopeptide or fluorescent peptide substrate). The format is biochemical. As for the experimental part:
as §1, §2, §3

The target of a further experiment is MMP-13 (Homo sapiens, UniProt P45452). Kind of experiment: MMP-13 inhibition (thiopeptide or fluorescent peptide substrate). Type of experiment: biochemical. On the procedure: as §1, §2, §3
Experiment [1] has as its target TNF-α converting enzyme (TACE) (Homo sapiens, UniProt P78536). Kind of experiment: TACE inhibition (fluorescent peptidyl substrate). The format is biochemical. To be noted: read-out: IC50 (nM) or % Inhibition (µM) TACE. On the procedure:
Using 96-well black microtiter plates, each well receives a solution composed of 10 µL TACE (final concentration 1µg/mL), 70µL Tris buffer, pH 7.4 containing 10% glycerol (final concentration 10 mM), and 10 µL of test compound solution in DMSO (final concentration 1µM, DMSO concentration <1%) and incubated for 10 minutes at room temperature. The reaction is initiated by addition of a fluorescent peptidyl substrate (final concentration 100 µM) to each well and then shaking on a shaker for 5 sec.
The reaction is read (excitation 340 nm, emission 420 nm) for 10 min. and the increase in fluorescence over time is plotted as a linear line. The slope of the line is calculated and represents the reaction rate.
The linearity of the reaction rate is confirmed (r^2 >0.85). The mean (x±sem) of the control rate is calculated and compared for statistical significance (p<0.05) with drug-treated rates using Dunnett's multiple comparison test.

In another experiment the test system is THP-1 cells. Kind of experiment: THP-1 soluble protein assay (LPS-stimulated human monocytic THP-1 cells). The format is cell-based. To be noted: Homo sapiens, LPS-stimulated THP-1 cells, read-out: % Inhib. @ 3µM THP. From the text:
Mitogenic stimulation of THP-1 cells cause differentiation into macrophage like cells with concomitant secretion of tumor necrosis factor (TNF-a) and TNF receptor (TNF-R p75/80 and TNF-R p55/60) and Interleukin-8 (IL-8), among other proteins. In addition, non-stimulated THP-1 cells shed both the p75/80 and the p55/60 receptors over time. The release of membrane bound TNF-α and possibly TNF-R p75/80 and TNF-R p55/60, but not IL-8, is mediated by an enzyme called TNF-a converting enzyme or TACE.
THP-1 cells (from ATCC) are a human monocytic cell line which were obtained from the peripheral blood of a person with acute monocytic leukemia. They can be grown in culture and differentiated into macrophage like cells by stimulation with mitogens.
Each vial of cells are cultured for about two weeks prior to being used for an assay and then are used for only 4 to 6 weeks to screen compounds.
Cell exposure to DMSO was limited to 0.1 % final concentration. […] Compounds can be evaluated for their effect on basal (non-stimulated) shedding of the receptors by replacing the LPS with […] of THP-1 media. Plates are placed into an incubator set at 5% CO2 and at 37°C. After 4 hours of incubation, […] of tissue culture supernatant (TCS) is removed for use in an TNF-a ELISA. Following 24 hours of incubation, […] of TCS is removed and used for analysis in TNF-R p75/80, TNF-R p55/60 and IL-8 ELISAs.
In addition, at the 24 hours timepoint, and the cells for each treatment group are collected by resuspension in 500 µl/well of THP-1 media and transferred into a FACS tube. […] The samples are run on a Becton Dickinson FaxCaliber FLOW cytometry machine and the amount of dye taken up by each cell is measured in the high red wavelength (FL3). Only cells with compromised membranes (dead or dying) can take up PI. The percent of live cells is calculated by the number of cells not stained with PI, divided by the total number of cells in the sample. The viability values calculated for the drug treated groups were compared to the viability value calculated for the vehicle treated mitogen stimulated group ("vehicle positive control") to determine the "percent change from control". This "percent change from control" value is an indicator of drug toxicity.
The quantity of soluble TNF-a, TNF-R p75/80 and TNF-R p55/60 and IL-8 in the TCS of the THP-1 cell cultures are obtained with commercially available ELISAs from R&D Systems, by extrapolation from a standard curve generated with kit standards. The number of cells that either take up or exclude PI are measured by the FLOW cytometry machine and visualized by histograms using commercially available Cytologic software for each treatment group including all controls.
Biological variability in the magnitude of the response of THP-1 cell cultures requires that experiments be compared on the basis of percent change from "vehicle positive control" for each drug concentration. Percent change in each soluble protein evaluated from the "vehicle positive control" was calculated for each compound concentration with the following formula: % Change =(pg/ml(compound) - pg/ml (veh pos control))/(pg/ml (veh pos control) - pg/ml(veh neg control))x 100 [formula]
For the soluble protein (TNF-a, p75/80, p55/60, IL-8) studies under stimulated conditions, the mean pg/ml of duplicate wells were determined and the results expressed as percent change from "vehicle positive control". For the soluble protein (p75/80 and p55/60 receptors) studies under non-stimulated conditions, the mean pg/ml of duplicate wells were determined and the results expressed as percent change from "vehicle positive control" utilizing the following formula: % Change =(pg/ml (compound neg control) - pg/ml (veh neg control)/(pg/ml (veh neg control))X 100 [formula]
IC50 values for each compound are calculated by non-linear regression analysis using customized software utilizing the JUMP statistical package.

Chain of TNF-α converting enzyme (TACE) (P78536 215-824, species assumed): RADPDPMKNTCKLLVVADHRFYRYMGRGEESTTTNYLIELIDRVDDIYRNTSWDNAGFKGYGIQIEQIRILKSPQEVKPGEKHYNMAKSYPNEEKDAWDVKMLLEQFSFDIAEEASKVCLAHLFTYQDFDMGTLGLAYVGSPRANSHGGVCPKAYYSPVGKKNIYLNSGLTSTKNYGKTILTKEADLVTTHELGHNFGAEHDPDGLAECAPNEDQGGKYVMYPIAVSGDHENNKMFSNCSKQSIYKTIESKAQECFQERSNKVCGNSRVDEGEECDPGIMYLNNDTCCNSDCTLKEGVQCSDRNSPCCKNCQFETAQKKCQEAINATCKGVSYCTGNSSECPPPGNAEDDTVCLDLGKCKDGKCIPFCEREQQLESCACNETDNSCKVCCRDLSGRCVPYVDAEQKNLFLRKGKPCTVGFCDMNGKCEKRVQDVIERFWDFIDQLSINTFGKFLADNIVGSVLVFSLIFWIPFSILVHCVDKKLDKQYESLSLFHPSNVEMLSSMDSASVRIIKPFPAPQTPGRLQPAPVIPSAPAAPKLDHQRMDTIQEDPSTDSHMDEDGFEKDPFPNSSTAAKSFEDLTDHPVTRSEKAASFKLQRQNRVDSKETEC
Chain of MMP-9 (P14780 94-707): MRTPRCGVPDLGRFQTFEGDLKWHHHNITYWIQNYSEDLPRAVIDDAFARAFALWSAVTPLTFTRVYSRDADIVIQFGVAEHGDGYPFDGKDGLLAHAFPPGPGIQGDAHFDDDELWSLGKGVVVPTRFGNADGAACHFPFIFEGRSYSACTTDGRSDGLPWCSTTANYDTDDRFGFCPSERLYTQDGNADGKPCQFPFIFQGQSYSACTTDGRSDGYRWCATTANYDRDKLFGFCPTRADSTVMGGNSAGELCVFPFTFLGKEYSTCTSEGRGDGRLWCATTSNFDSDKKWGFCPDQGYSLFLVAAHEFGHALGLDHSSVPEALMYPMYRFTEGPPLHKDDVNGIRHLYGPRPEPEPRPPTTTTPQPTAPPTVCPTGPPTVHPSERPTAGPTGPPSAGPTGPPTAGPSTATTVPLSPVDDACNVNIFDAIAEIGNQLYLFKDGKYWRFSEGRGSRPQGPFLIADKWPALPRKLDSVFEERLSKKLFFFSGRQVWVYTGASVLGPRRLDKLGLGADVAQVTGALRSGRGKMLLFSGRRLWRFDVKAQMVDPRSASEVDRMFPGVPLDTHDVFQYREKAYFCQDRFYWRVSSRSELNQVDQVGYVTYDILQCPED

As for `C#CCOc1ccc(S(=O)(=O)N(C)c2c(C)cc(Br)cc2C(=O)NO)cc1` [Example 53, 5-Bromo-N-hydroxy-3-methyl-2-[methyl-(4-prop-2-ynyloxy-benzenesulfonyl)-amino]-benzamide], the IC50 stood at 113 nM against MMP-1, 15 nM at MMP-9, 52 nM on MMP-13 and 11 nM in experiment [1]. The inhibition at 3 µM in the experiment with THP-1 cells amounted to 55%.

`Cc1cc(Br)cc(C(=O)NO)c1N(C)S(=O)(=O)c1ccc(OCC#CCN2CCCC2)cc1` [Example 65, 5-Bromo-N-hydroxy-3-methyl-2-{methyl-[4-(4-pyrrolidin-1-yl-but-2-ynyloxy)-benzenesulfonyl]-amino}-benzamide]: the IC50 turned out to be 3350 nM against MMP-1, 602 nM against MMP-9, 537 nM on MMP-13 and 148 nM in experiment [1]. The inhibition at 3 µM with THP-1 cells amounted to 12%.

In the case of `CCCC#CCOc1ccc(S(=O)(=O)N(C)c2c(C)cc(Br)cc2C(=O)NO)cc1` [Example 57, 5-Bromo-2-[(4-hex-2-ynyloxy-benzenesulfonyl)-methyl-amino]-N-hydroxy-3-methyl-benzamide], the IC50 on MMP-1 was determined as 2360 nM; against MMP-9, 232 nM; on MMP-13, 358 nM; in experiment [1], 47 nM. Also, the inhibition at 3 µM with THP-1 cells was 11%.

For the compound `CC#CCOc1ccc(S(=O)(=O)N(C)c2c(C)cc(-c3ccccc3)cc2C(=O)NO)cc1` [Example 43, 4-[(4-But-2-ynyloxy-benzenesulfonyl)-methyl-amino]-5-methyl-biphenyl-3-carboxylic acid hydroxyamide], the IC50 was found to be 4240 nM against MMP-1, 578 nM on MMP-9, 518 nM against MMP-13 and 135 nM in experiment [1]. Moreover, the inhibition at 3 µM in the experiment with THP-1 cells amounted to 76%.

Regarding `Cc1cc(Br)cc(C(=O)NO)c1N(C)S(=O)(=O)c1ccc(OCC#CCNCCN(C)C)cc1` [Example 34, 5-Bromo-2-({4-[4-(2-dimethylamino-ethylamino)-but-2-ynyloxy]-benzenesulfonyl}-methyl-amino)-N-hydroxy-3-methyl-benzamide], the inhibition at 10 µM at MMP-1 worked out at 39%. The IC50 at MMP-9 is 790 nM; on MMP-13, 383 nM; in experiment [1], 127 nM. In the experiment on THP-1 cells, the inhibition at 3 µM was 22%.

As to `CCC#CCOc1ccc(S(=O)(=O)N(C)c2c(C)cc(Br)cc2C(=O)NO)cc1` [Example 55, 5-Bromo-N-hydroxy-3-methyl-2-[methyl-(4-pent-2-ynyloxy-benzenesulfonyl)-amino]-benzamide], the IC50 against MMP-1 stood at 1230 nM; against MMP-9, 800 nM; against MMP-13 it was 289 nM; in experiment [1], 12 nM. Further, the inhibition at 3 µM with THP-1 cells came out at 48%.

For `CC#CCOc1ccc(S(=O)(=O)N(Cc2ccccc2)c2c(C)cc(C)cc2C(=O)NO)cc1` [Example 64, 2-[Benzyl-(4-but-2-ynyloxy-benzenesulfonyl)-amino]-N-hydroxy-3,5-dimethyl-benzamide], the IC50 against MMP-1 stood at 1190 nM; against MMP-9, 830 nM; on MMP-13 it was 312 nM; in experiment [1], 105 nM. Besides, the inhibition at 3 µM in the experiment on THP-1 cells is 48%.

Take `CC#CCOc1ccc(S(=O)(=O)N(C)c2c(C)cc(I)cc2C(=O)NO)cc1` [Example 63, 2-[(4-But-2-ynyloxy-benzenesulfonyl)-methyl-amino]-N-hydroxy-5-iodo-3-methyl-benzamide]: the IC50 against MMP-1 amounted to 901 nM; against MMP-9, 840 nM; against MMP-13, 275 nM; in experiment [1], 16 nM. Further, the inhibition at 3 µM in the experiment with THP-1 cells came out at 87%.

Regarding `COc1ccc(C#CCOc2ccc(S(=O)(=O)N(C)c3c(C)cc(Br)cc3C(=O)NO)cc2)cc1` [Example 62, 5-Bromo-N-hydroxy-2-({4-[3-(4-methoxy-phenyl)-prop-2-ynyloxy]-benzenesulfonyl}-methyl-amino)-3-methyl-benzamide], the IC50 on MMP-1 was found to be 3600 nM; on MMP-9, 901 nM; on MMP-13, 588 nM; in experiment [1], 104 nM. Further, in the experiment with THP-1 cells, the inhibition at 3 µM came to 15%.

Turning to `COCC#CCOc1ccc(S(=O)(=O)N(C)c2c(C)cc(Br)cc2C(=O)NO)cc1` [Example 58, 5-Bromo-N-hydroxy-2-{[4-(4-methoxy-but-2-ynyloxy)-benzenesulfonyl]-methyl-amino}-3-methyl-benzamide], the IC50 worked out at 7800 nM at MMP-1, 387 nM on MMP-9, 233 nM against MMP-13 and 11 nM in experiment [1]. Besides, in the experiment with THP-1 cells, the inhibition at 3 µM was 46%.

Regarding `CNCC#CCOc1ccc(S(=O)(=O)N(C)c2c(C)cc(Br)cc2C(=O)NO)cc1` [Example 32, 5-Bromo-N-hydroxy-3-methyl-2-{methyl-[4-(4-methylamino-but-2-ynyloxy)-benzenesulfonyl]-amino}-benzamide], on MMP-1, the inhibition at 10 µM turned out to be 26%. Besides, the IC50 at MMP-9 was 643 nM; at MMP-13, 255 nM; in experiment [1], 58 nM. Besides, in the experiment with THP-1 cells, the inhibition at 3 µM stood at 15%.
